According to publication PMC8039949, “A novel small-molecule PROTAC selectively promotes tau clearance to improve cognitive functions in Alzheimer-like models” (Theranostics, 2021):

Columns and labels:
tau with Vhl (E3 ligase) = molecular target: T1, tau with Vhl (E3 ligase) (Homo sapiens, UniProt P10636+P40337); assay: Co-immunoprecipitation of tau with Vhl and tau ubiquitination in HEK293-hTau cells; assay type: cell-based; conditions: 20 μM for 6 h
T1 construct: expressed in transfected cells; host or cells: HEK293-hTau (tau stably expressed; VHL endogenous)
T1 sequence (P10636 1-441 isoform P10636-8): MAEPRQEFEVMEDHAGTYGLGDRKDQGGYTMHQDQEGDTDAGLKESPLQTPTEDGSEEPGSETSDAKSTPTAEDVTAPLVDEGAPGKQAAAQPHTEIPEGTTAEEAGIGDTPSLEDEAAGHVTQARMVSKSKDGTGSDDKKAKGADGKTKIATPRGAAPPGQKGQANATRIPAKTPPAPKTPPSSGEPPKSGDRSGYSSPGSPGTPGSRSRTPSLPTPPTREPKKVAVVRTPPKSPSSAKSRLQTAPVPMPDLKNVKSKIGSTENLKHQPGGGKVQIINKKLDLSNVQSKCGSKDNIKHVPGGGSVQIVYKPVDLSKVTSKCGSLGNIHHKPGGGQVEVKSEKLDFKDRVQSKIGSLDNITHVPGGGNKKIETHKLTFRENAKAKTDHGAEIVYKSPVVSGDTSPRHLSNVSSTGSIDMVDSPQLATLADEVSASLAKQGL
T1 sequence (P40337 whole entry): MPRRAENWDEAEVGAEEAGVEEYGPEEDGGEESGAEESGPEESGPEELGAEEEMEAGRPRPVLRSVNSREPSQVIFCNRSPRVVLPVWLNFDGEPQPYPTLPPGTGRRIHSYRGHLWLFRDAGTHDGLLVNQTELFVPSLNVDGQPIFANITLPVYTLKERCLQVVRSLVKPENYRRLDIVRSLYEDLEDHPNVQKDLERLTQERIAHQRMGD
T1 sequence (Q15369 whole entry partner): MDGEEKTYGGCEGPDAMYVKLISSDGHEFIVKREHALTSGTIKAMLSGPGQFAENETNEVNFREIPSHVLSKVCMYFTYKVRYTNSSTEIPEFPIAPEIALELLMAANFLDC
T1 sequence (Q15370 whole entry partner): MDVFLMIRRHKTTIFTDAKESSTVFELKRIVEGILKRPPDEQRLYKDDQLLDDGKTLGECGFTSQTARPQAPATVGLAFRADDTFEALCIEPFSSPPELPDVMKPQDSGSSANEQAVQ
T1 sequence (Q13617 whole entry partner): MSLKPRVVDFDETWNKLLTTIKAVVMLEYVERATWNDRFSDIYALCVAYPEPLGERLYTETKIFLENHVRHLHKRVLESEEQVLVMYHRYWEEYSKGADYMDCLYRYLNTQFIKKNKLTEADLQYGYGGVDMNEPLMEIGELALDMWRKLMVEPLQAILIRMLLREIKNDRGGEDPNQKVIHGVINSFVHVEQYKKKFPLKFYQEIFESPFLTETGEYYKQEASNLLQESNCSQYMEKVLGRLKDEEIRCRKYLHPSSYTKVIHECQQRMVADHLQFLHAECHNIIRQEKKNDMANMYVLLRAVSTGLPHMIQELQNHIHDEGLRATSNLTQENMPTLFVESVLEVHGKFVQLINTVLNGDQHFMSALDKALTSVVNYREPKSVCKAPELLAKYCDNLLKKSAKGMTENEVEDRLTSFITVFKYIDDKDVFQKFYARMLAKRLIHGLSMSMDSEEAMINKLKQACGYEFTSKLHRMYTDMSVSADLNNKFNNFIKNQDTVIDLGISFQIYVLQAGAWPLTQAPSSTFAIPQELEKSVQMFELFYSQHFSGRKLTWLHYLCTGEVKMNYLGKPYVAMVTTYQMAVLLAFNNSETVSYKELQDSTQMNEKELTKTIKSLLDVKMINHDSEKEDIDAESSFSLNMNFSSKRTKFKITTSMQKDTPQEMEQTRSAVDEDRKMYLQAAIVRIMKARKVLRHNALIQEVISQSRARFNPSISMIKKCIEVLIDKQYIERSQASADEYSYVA
T1 sequence (P62877 whole entry partner): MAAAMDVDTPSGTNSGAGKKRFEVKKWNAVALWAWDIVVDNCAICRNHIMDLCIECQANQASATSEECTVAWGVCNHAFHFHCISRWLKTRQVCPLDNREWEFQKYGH
Experimental: Cell lysates were centrifuged at 12,000 g for 20 min at 4 °C and the supernatant were incubated with protein G agarose beads (Millipore, 16-266), pre-washed with cold PBS for 1 h at 4 °C to remove non-specific proteins. After centrifuged (14,000 g) at 4 °C for 15 min, the supernatant was collected and protein concentration was measured by BCA assay. The supernatant was sequentially incubated with primary antibodies (2 μg/100 μg) overnight at 4 °C with rotating in the first day and protein G agarose beads (20 μL/100 μL) the next day. After spin (6,000 g) for 2 min at 4 °C, the pellets were collected, washed with precooled washing buffer for 3 times, resuspended in buffer (50 mM Tris-HCl, pH 6.8, 2% SDS, 10% glycerol), boiled for 10 min, and analyzed by Western blotting.

tau [1] = molecular target: tau (Mus musculus, UniProt P10637); assay: Intracerebroventricular infusion in wild-type mice, brain tau by Western blotting; assay type: in vivo; conditions: 4 m-old wild-type mice, intracerebroventricular 5 μL, 200 μM
Chain of tau (Mus musculus, UniProt P10637) (P10637 114-430 isoform P10637-2 limits assumed): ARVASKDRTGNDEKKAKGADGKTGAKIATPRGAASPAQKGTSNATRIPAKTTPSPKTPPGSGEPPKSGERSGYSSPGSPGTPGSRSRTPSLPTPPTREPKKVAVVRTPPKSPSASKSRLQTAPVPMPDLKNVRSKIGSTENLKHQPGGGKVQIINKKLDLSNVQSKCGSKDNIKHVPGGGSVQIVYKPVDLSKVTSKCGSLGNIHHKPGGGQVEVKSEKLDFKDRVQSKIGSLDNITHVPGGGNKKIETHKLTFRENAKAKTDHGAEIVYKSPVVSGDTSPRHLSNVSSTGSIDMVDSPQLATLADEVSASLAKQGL
Experimental: (§1) For brain surgery and stereotaxic cerebroventricular drug delivery, the mice were placed in a stereotaxic apparatus and anesthetized with 2% isoflurane (RWD Life Science, R510-22) through a nose cone (300-500 mL/min, RWD Life Science, China, R500). The scalp was incised along the midline between the ears after the mice were sterilized with iodophors and 75% (vol/vol) alcohol. The holes were drilled stereotaxically in the skull at a cerebroventricular location (posterior 0.22 mm, lateral 0.9 mm, and ventral 2.3 mm relative to bregma). Using a microinjection system (Shenzhen RWD Life Technology Co., Ltd; RWD 69100), C004019 (5 μL, 200 μM) was infused at a rate of 0.5 μL/min. The needle was kept in place for 10 min before withdrawal. After the skin was sutured, the mice were placed on a heater for analepsia. For subcutaneous injection, C004019 was diluted with 20% HP-β-CD and injected under the skin on the back neck to reach a final concentration of 3 mg/kg (low dose) or 15 mg/kg (high dose).
(§2) The cells or hippocampal/cortex tissues were homogenized for ~ 30 min on ice in buffer [50 mM Tris·HCl pH 7.4-7.5, 100 mM NaCl, 1% (vol/vol) Triton X-100, 5 mM EDTA, 1:100 PMSF, 1:1,000 protease inhibitor cocktail containing 4-(2-Aminoethyl)-benzenesulfonyl fluoride hydrochloride, aprotinin, bestatin, leupeptin, E-64, and pepstatin A stored at 4 °C], and then centrifuged at 12,000 × g at 4 °C for 20 min. The supernatant was collected and the protein levels were analyzed using bicinchoninic acid (BCA, KF016, Sigma-Aldrich) by following the manufacturer's instruction (served as soluble protein). The pellet was further incubated with 8% (wt/vol) SDS buffer at 4 °C and then treated by ultrasonic wave to reach a complete resuspension. The suspension was spun (18,000 × g, 4 °C for 20 min) and the supernatant collected (served as insoluble fraction). The supernatant of different faction was respectively mixed with loading buffer (3:1, vol/vol) containing 200 mM Tris-HCl, pH 6.8, 8% SDS, 40% glycerol, and boiled for 10 min. […] Immunoreactive bands were quantitatively analyzed by Image J2x software.

tau [2] = molecular target: T2, tau (UniProt P10636+P40338, P618L); assay: Intracerebroventricular infusion in 3xTg-AD mice, brain tau by Western blotting and immunohistochemistry; assay type: in vivo, mouse; conditions: 9.5 m-old 3xTg-AD mice; intracerebroventricular 5 μL, 200 μM; 48 h
T2 construct: tissue stock number 34830; host or cells: hippocampus and cortex of 9.5 m-old 3xTg-AD mice
T2 sequence (P10636 1-383 isoform P10636-6 P243L): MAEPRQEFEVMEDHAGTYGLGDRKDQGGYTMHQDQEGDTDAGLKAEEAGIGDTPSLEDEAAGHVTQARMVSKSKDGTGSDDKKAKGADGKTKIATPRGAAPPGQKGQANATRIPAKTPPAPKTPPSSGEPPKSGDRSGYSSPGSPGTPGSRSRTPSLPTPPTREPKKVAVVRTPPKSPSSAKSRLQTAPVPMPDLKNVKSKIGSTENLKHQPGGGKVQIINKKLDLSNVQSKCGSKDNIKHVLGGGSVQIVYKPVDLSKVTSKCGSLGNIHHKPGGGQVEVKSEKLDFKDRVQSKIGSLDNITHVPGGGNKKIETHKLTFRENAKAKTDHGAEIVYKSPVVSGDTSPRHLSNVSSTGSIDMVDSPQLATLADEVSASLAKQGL
T2 sequence (P40338 whole entry, the tested form may be a part): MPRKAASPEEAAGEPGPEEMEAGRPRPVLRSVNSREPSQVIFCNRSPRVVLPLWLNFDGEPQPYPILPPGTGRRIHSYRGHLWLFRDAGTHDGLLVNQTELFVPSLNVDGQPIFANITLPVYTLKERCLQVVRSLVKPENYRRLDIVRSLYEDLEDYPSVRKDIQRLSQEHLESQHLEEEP
T2 sequence (P83940 whole entry partner, the tested form may be a part): as the sequence (Q15369 whole entry partner) above
T2 sequence (P62869 whole entry partner, the tested form may be a part): as the sequence (Q15370 whole entry partner) above, with D40E, C89R, S110G counted along it
Experimental: as §1, with “The needle was kept in place for 10 min before withdrawal. After the skin was sutured, the mice were placed on a heater for analepsia. For subcutaneous injection, C004019 was diluted with 20% HP-β-CD and injected under the skin on the back neck to reach a final concentration of 3 mg/kg (low dose) or 15 mg/kg (high dose).” left out
The cells or hippocampal/cortex tissues were homogenized for ~ 30 min on ice in buffer [50 mM Tris·HCl pH 7.4-7.5, 100 mM NaCl, 1% (vol/vol) Triton X-100, 5 mM EDTA, 1:100 PMSF, 1:1,000 protease inhibitor cocktail containing 4-(2-Aminoethyl)-benzenesulfonyl fluoride hydrochloride, aprotinin, bestatin, leupeptin, E-64, and pepstatin A stored at 4 °C], and then centrifuged at 12,000 × g at 4 °C for 20 min. The supernatant was collected and the protein levels were analyzed using bicinchoninic acid (BCA, KF016, Sigma-Aldrich) by following the manufacturer's instruction (served as soluble protein). […] Immunoreactive bands were quantitatively analyzed by Image J2x software. […]

tau [3] = assay: Multiple-doses subcutaneous administration in hTau transgenic mice, brain tau; assay type: in vivo, mouse; conditions: 12 m-old hTau transgenic mice, subcutaneous 3 mg/kg once every 6 days, 5 times
Experimental: as §1
as §2, with “software. […]” for “software.”

tau [4] = molecular target: T2, tau; assay: Multiple-doses subcutaneous administration in 3xTg-AD mice, brain tau; assay type: in vivo, mouse; conditions: 9.5 m-old 3xTg-AD mice, subcutaneous 3 mg/kg every 6 days, 5 times
Experimental: as §1
as §2, with “software. […]” for “software.”

amyloid-β plaque = assay: Congo red staining of amyloid-β plaque in 3xTg-AD mice; assay type: in vivo, mouse; conditions: 9.5 m-old 3xTg-AD mice; subcutaneous 3 mg/kg every 6 days, 5 times

hippocampal tau level (tau [1]; 48 h): still very significant
total tau and p-tau levels in hippocampus and cortex (tau [2]): reduced total tau and the p-tau levels
oligomer tau (T22-positive) in the soluble fraction (tau [4]; Western blotting): significantly reduced T22-positive tau
Compound: CC(=O)N1CCCN(c2nc(NCCc3cccs3)nc(N(C)CC(=O)NCCOCCOCCOCC(=O)N[C@H](C(=O)N3C[C@H](O)C[C@H]3C(=O)NCc3ccc(-c4scnc4C)cc3)C(C)(C)C)n2)CC1 [C004019]
ubiquitination level of tau (tau with Vhl (E3 ligase)): significantly increased the ubiquitination level of tau
hippocampal tau level (tau [1]; 24 h): most remarkable hippocampal tau reduction
brain cortex tau level (tau [1]; 24 h and 48 h): significant reduction of tau was only detected at 48 h but not 24 h
p-tau and tau aggregation (HT7, AT8 immunohistochemistry, Thioflavin S staining) (tau [3]): Reduction of p-tau and tau aggregation
soluble and insoluble tau in cortex extracts (tau [3]; Western blotting): could reduce both soluble and insoluble tau
total and p-tau levels in hippocampal extracts (tau [3]; Western blotting): significantly reduced total and p-tau levels
p-tau and aggregated tau (pS404, AT8 immunohistochemistry, Thioflavin S staining) (tau [4]): Reduction of p-tau and aggregated tau proteins
soluble and insoluble tau levels in hippocampal and cortex extracts (tau [4]; Western blotting): remarkably reduced both soluble and insoluble tau levels
amyloid-β plaque (Congo red staining) (amyloid-β plaque): No significant effects on amyloid-β plaque
